From patent publication US20240225985A1, “BRIGHTENING COMPOSITIONS AND METHODS OF USE” (Alastin Skincare, Inc., priority 2021, published 2024) come the findings set out here.

One test has as its system endothelial cells. The experiment in a line: Gene expression of PMEL, tyrosinase genes, MC1/4R, EDNRB, MITF, ERK1/2, JNK, AKT1. In kind it is cell-based. Conditions: after treatment of endothelial cells as printed. An excerpt:
The methods similar to Examples 3-4 were used to measure expression of PMEL, tyrosinase genes, MC1/4R, EDNRB, MITF, ERK1/2, JNK, and ANKT1.
FIGS. 10A-10D illustrates the expression of PMEL (FIG. 10A), Tyrosinase genes (FIG. 10B), MC1/4R (FIG. 10C), and EDNRB (FIG. 10D) after treatment of endothelial cells with lactoferrin (Lacto), peptide derived from lactoferrin (TCV), hexapeptide-12 (Hex12), tripeptide-1 and hexapeptide-12 (TriHex), hexapeptide-11 (Hex11), tranexamic acid (Tran acid) octapeptide (Octa), phosphatidylserine (phos), Cannabidiol (CBD), and all (total).
MITF is regulated by phosphorylation. Specifically, the MAPK and Akt pathways are known to phosphorylate MITF at certain sites. FIGS. 12A-12C illustrate the expression of ERK1/2 (MAPK3/MAPK1) (FIG. 12A), JNK (FIG. 12B), AKT1 (FIG. 12C) after treatment of endothelial cells with lactoferrin (Lacto), peptide derived from lactoferrin (TCV), hexapeptide-12 (Hex12), tripeptide-1 and hexapeptide-12 (TriHex), hexapeptide-11 (Hex11), octapeptide (Octa), phosphatidylserine (phos), Cannabidiol (CBD), and all (total).

The subject of test [1] is melanocytes. The experiment in a line: Gene expression study (RNA sequencing) in PGE2-induced melanocytes. In kind it is cell-based, human. Conditions: melanocytes induced with 10 uM PGE2, 24 hours of compound exposure. The procedure:
Four cell types associated with pigmentation pathways—melanocytes, keratinocytes, fibroblasts and endothelial (HUVEC) cells—were analyzed for gene expression.
To simulate the UV stimulatory pigmentation pathway process, melanocytes were pre-treated with PGE2, a normal direct consequence of UV light exposure usually emanating from exposed keratinocytes. After the 48 hour attachment culture, these melanocytes were induced with 10 uM PGE2 in melanocyte media for 24 hrs. The four primary human adult dermal cell lines were cultured and plated in well plates in triplicate and then treated with 11 different compound treatments (plus DMSO control). After 48 hours of attachment culture, the remaining fibroblasts, HUVECs and keratinocytes were treated with the test compounds listed in Table 8.
After 24 hours of compound exposure, RNA lysate preparation was carried out and samples were shipped to MedGenome for RNA extraction, library construction and sequencing to 25M paired end 100 bp reads per sample. Library prep and sequencing was completed at MedGenome.

The test system of another test is MITF. The test can be described thus: In vitro MITF gene expression test in cultured fibroblasts. Type of test: cell-based. Conditions: 48 hours, 80 ppm Hexapeptide-12, 120 ppm Tripeptide-1 or blend of both, negative = downregulation. The procedure:
Microphthalmia-associated transcription factor (MITF) is a master regulator of pigmentation and melanin transfer and a potential new target for hyperpigmentation and melanoma. In vitro MITF gene expression tests were carried out to ascertain differences between individual peptides (tripeptide-1 and hexapeptide-12) and their combination in terms of MITF downregulation.
Specifically, the tests were conducted by culturing fibroblasts and then adding tripeptide-1, hexapeptide-12, or a combination of both. After 48 hours, MITF gene expression was analyzed. […] This increased expression continued to manifest and increased even further at the 72 hour time point.

Test [2] relates to melanocytes. The test can be described thus: In vitro melanocyte comparative analysis via absorbance readings (melanin production). Type of test: cell-based. Conditions: for Regulation of melanogenesis (decreased absorption denoting decreased melanin formation): melanocytes, summary of Table 10. The procedure:
Melanocytes were cultured in 6-well plates containing growth media. Once confluent, 2 concentrations of each of the 10 compounds were added to the cells in triplicate wells for 4 days. There were a total of eleven 6-well plates, one for each compound treatment and one for the vehicle control. Absorbance readings were taken on the lysates prepared for each well of the 6-well plates, normalizing for cells counts. The model was initially tested for accuracy and validated using hexapeptide-12 in view of strong gene expression results with melanocyte cell line in the first study—confirmation of decreased stimulation was obtained. Additional validation was carried out using MSH addition to media to confirm increased stimulation of melanin production. The following compounds used in this study are seen in Table 9.

Setting [3] is: higher concentration (Lactoferrin 1000, HEX-11 200, Phosphatidylserine 500, Silymarin 20, Sesamol 100, Tranexamic Acid 1000, HEX-12 4.9, ug/mL or ug/uL; Phytoene/Phytofluene 5.00%), 4 days, control = 0.0 row.
The mark [4] stands for this setting: lower concentration (Lactoferrin 500, HEX-11 100, Phosphatidylserine 250, Silymarin 10, Sesamol 50, Tranexamic Acid 500, HEX-12 2.9, ug/mL or ug/uL; Phytoene/Phytofluene 2.50%), 4 days, control = 0.0 row.

Ends that are not written are not given here. * marks the point of attachment. Palmitoyl = CCCCCCCCCCCCCCCC(=O)*

Regarding “Hexapeptide-12: hexapeptide-12; VGVAPG per Pal-VGVAPG (SEQ ID NO:25) in b49 (Palmitoyl-VGVAPG)”, the “melanogenic activity (expression of PMEL, tyrosinase genes, MC1/4R, EDNRB, kinases)” value in the test with endothelial cells is listed as “significant effects on such melanogenic activity”; with endothelial cells (listed as hexapeptide-12) it was “robust melanogenic activity”. Moreover, the “melanogenic gene activity in melanocytes” value with melanocytes [1] is “particularly dominant in melanogenic activity”; in the test with melanocytes [1] (listed as hexapeptide-12) it was “significant effects on melanogenesis activity”. For the same molecule, the “MITF gene expression (down-/upregulation)” value in the test with MITF was −1.16. Besides, the “Absorbance 405 nm” value with melanocytes [2] (setting [3]) amounted to 0.96; in the test with melanocytes [2] (setting [4]), 1.32. For the same molecule, the “Absorbance 490 nm” value in the test on melanocytes [2] (setting [3]) stood at 0.64; with melanocytes [2] (setting [4]) it was 0.94. Besides, the “Absorbance 492 nm” value is reported as 0.46 with melanocytes [2] (setting [3]) and 0.64 in the test with melanocytes [2] (setting [4]). For the same molecule, the “Regulation of melanogenesis (decreased absorption denoting decreased melanin formation)” value in the test on melanocytes [2] is reported as “Regulation of melanogenesis was observed”.
Consider Tripeptide-1, for which the “MITF gene expression (down-/upregulation)” value in the test on MITF (listed as Tripeptide) is 1.72; in the test with MITF (listed as tripeptide-1), “+1.72”.
`Oc1ccc2c(c1)OCO2` [Sesamol, 3,4-Methylenedioxyphenol]: in the test with melanocytes [2] (setting [3]), the “Absorbance 405 nm” value came to 0.465, the “Absorbance 490 nm” value came out at 0.252 and the “Absorbance 492 nm” value is reported as 0.183. In the test on melanocytes [2] (setting [4]), the “Absorbance 405 nm” value was found to be 0.602, the “Absorbance 490 nm” value is reported as 0.361 and the “Absorbance 492 nm” value is 0.24. In the test on melanocytes [2], the “Regulation of melanogenesis (decreased absorption denoting decreased melanin formation)” value is “Regulation of melanogenesis was also observed”.
Turning to “MSH: MSH addition to media to confirm increased stimulation of melanin production (SYSMEHFRWGKPV; ends and bridges not checked; UniProt P01189 138-150, looked up)”, the “Absorbance 405 nm” value with melanocytes [2] (MSH 10 nm media (validation of increased melanin production), control 1.649) was determined as 1.921. Besides, the “Absorbance 492 nm” value in the test with melanocytes [2] (MSH 10 nm media, control 0.501) is on record as 0.573. Also, the “Absorbance 490 nm” value with melanocytes [2] (MSH 10 nm media, control 0.971) is listed as 1.155.
As to `NC[C@H]1CC[C@H](C(=O)O)CC1` [Tranexamic Acid, Tranexamic acid], in the test on melanocytes [2] (setting [3]), the “Absorbance 405 nm” value is 0.406, the “Absorbance 490 nm” value is listed as 0.243 and the “Absorbance 492 nm” value is 0.176. In the test with melanocytes [2] (setting [4]), the “Absorbance 405 nm” value was found to be 0.395, the “Absorbance 490 nm” value was determined as 0.254 and the “Absorbance 492 nm” value was 0.187. For the same molecule, the “Regulation of melanogenesis (decreased absorption denoting decreased melanin formation)” value with melanocytes [2] is on record as “Regulation of melanogenesis was also observed”.
